Test results from patent US20250082633A1, “COMPOUNDS AND METHODS FOR MODULATING SPLICING” (REMIX THERAPEUTICS INC., priority 2021, published 2025).
Where two headings read alike, the source gives them in different places.

Columns and labels:
SMN2 mRNA = experiment: RT-qPCR splicing assay, gene panel, SMN2 canonical junction (CJ) mRNA; assay type: cell-based; conditions: Homo sapiens, read-out: SMN2 CJ IC50
Outline: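 A673 (DMEM/10% FBS) or K562 (IMDM/10% FBS) cells were treated 24 h at 37 °C with an 11-point 3-fold dilution series, top final 10 uM, DMSO ≤0.25%. Lysates underwent one-step RT-qPCR for the canonical-junction isoform with GAPDH, GUSB or PPIA as housekeeper. ΔΔCt versus DMSO was converted to RQ (2^−ΔΔCt), then to percent response.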

K562 cells = experiment: Cell Titer Glo 2.0 cell viability assay; assay type: cell-based; conditions: Homo sapiens, 500 cells/well, 72 hours
Outline: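 K562 cells (500/well) in IMDM with 10% FBS were exposed to serially diluted compounds at 0.1% DMSO final. After 72 h at 37° C, 5% CO2, viability was read by CellTiter-Glo 2.0 luminescence, with medium-only blanks.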

[1] = decrease in CJ mRNA levels, larger panel of genes, Table 3

| SMILES | IC50 (SMN2 mRNA; [1]) | GI50 (K562 cells) | IC50 (SMN2 mRNA) |
| --- | --- | --- | --- |
| COc1cc(-c2cc3cn(C)nc3cc2O)nc2cn(C3CCNCC3)nc12 [Compound 140, 5-[7-methoxy-2-(4-piperidyl)pyrazolo[4,3-b]pyridin-5-yl]-2-methyl-indazol-6-ol] | 100 to 1000 nM | > 10000 nM | – |
| Cc1c(O)c(-c2cc(F)c3nn(C4CCNCC4)cc3c2)cc2cn(C)nc12 [Compound 126, 5-[7-fluoro-2-(4-piperidyl)indazol-5-yl]-2,7-dimethyl-indazol-6-ol] | 1000 to 10000 nM | > 10000 nM | – |
| Cc1cn2nc(-c3cc(F)c4nn(C5CCN(CCO)C6(CC6)C5)cc4c3)cc(C)c2n1 (centres unmarked) [Compound 180, 2-[7-[5-(2,8-dimethylimidazo[1,2-b]pyridazin-6-yl)-7-fluoro-indazol-2-yl]-4-azaspiro[2.5]octan-4-yl]ethanol] | – | 100 to 1000 nM | < 100 nM |
| Cc1nc2c(C)cc(-n3cc4cc(N5CCNCC5)cc(F)c4n3)cc2o1 [Compound 119, 6-(7-fluoro-5-piperazin-1-yl-indazol-2-yl)-2,4-dimethyl-1,3-benzoxazole] | 1000 to 10000 nM | > 10000 nM | – |
| Cc1nc2ccc(-c3cc(F)c4nn(C5CCNCC5)cc4c3)cc2s1 [Compound 134, 6-(7-fluoro-2-(piperidin-4-yl)-2H-indazol-5-yl)-2-methylbenzo[d]thiazole] | 100 to 1000 nM | 1000 to 10000 nM | – |
| Cc1ccc2cc(-c3cc(F)c4nn(C5CCNCC5)cc4c3)ccc2n1 [Compound 163, 6-[7-fluoro-2-(4-piperidyl)indazol-5-yl]-2-methyl-quinoline] | 1000 to 10000 nM | 1000 to 10000 nM | – |
| Cc1cn2nc(-n3cc4cc(C5CCNCC5)cc(F)c4n3)cc(C)c2n1 [Compound 120, 6-[7-fluoro-5-(4-piperidyl)indazol-2-yl]-2,8-dimethyl-imidazo[1,2-b]pyridazine] | 100 to 1000 nM | 1000 to 10000 nM | – |
| Cc1cc(-n2cc3cc(N4CCNCC4)cc(F)c3n2)cc2cn(C)nc12 [Compound 117, 2-(2,7-dimethylindazol-5-yl)-7-fluoro-5-piperazin-1-yl-indazole] | 100 to 1000 nM | 1000 to 10000 nM | – |
| Fc1cc(-c2ccc3ncccc3c2)cc2cn(C3CCNCC3)nc12 [Compound 162, 6-[7-fluoro-2-(4-piperidyl)indazol-5-yl]quinoline] | 1000 to 10000 nM | 1000 to 10000 nM | – |
| Cc1cn2cc(-c3cc(F)c4nn(C5CCNCC5)cc4c3)nc(C)c2n1 [Compound 132, 6-[7-fluoro-2-(4-piperidyl)indazol-5-yl]-2,8-dimethyl-imidazo[1,2-a]pyrazine] | 100 to 1000 nM | 1000 to 10000 nM | – |
| Cc1cn2nc(-c3cc(F)c4nn([C@@H]5CCNC6(CC6)C5)cc4c3)cc(C)c2n1 [Compound 173] | < 100 nM | 100 to 1000 nM | – |
| Fc1cc(-c2ccc3cnccc3c2)cc2cn(C3CCNCC3)nc12 [Compound 161, 6-[7-fluoro-2-(4-piperidyl)indazol-5-yl]isoquinoline] | 100 to 1000 nM | 1000 to 10000 nM | – |
| Cc1cc(-n2cc3cc(N4CCNCC4)ccc3n2)cc2cn(C)nc12 [Compound 121, 2,7-dimethyl-5-(5-piperazin-1-ylindazol-2-yl)indazole] | 1000 to 10000 nM | 1000 to 10000 nM | – |

More lines, main results first:

| IC50 (SMN2 mRNA; [1]) | GI50 (K562 cells) | SMILES | IC50 (SMN2 mRNA) |
| --- | --- | --- | --- |
| < 100 nM | 100 to 1000 nM | Cc1cn2nc(-c3cc4cn(C5CCNCC5)nc4cc3O)cc(C)c2n1 [Compound 154, 5-(2,8-dimethylimidazo[1,2-b]pyridazin-6-yl)-2-(piperidin-4-yl)-2H-indazol-6-ol] | – |
| < 100 nM | 1000 to 10000 nM | Cc1cn2nc(-c3cc(F)c4nn(C5CCNCC5F)cc4c3)cc(C)c2n1 (centres unmarked) [Compound 166, 6-[7-fluoro-2-(3-fluoro-4-piperidyl)indazol-5-yl]-2,8-dimethyl-imidazo [1,2-b]pyridazine] | – |
| < 100 nM | 100 to 1000 nM | Cc1cn2nc(-c3cc(F)c4nn(CC5CCNCC5)cc4c3)cc(C)c2n1 [Compound 212, 6-[7-fluoro-2-(4-piperidylmethyl)indazol-5-yl]-2,8-dimethyl-imidazo[1,2-b]pyridazine] | – |
| < 100 nM | 100 to 1000 nM | COc1cc(-c2cc(C)c3nc(C)cn3n2)cc2cn(C3CCNCC3)nc12 [Compound 155, 6-(7-methoxy-2-(piperidin-4-yl)-2H-indazol-5-yl)-2,8-dimethylimidazo [1,2-b]pyridazine] | – |
| < 100 nM | 100 to 1000 nM | Cc1cn2nc(-c3cc(F)c4nn(C5CCN(C)C6(CC6)C5)cc4c3)cc(C)c2n1 (centres unmarked) [Compound 174, 6-[7-fluoro-2-(4-methyl-4-azaspiro[2.5]octan-7-yl)indazol-5-yl]-2,8-dimethyl-imidazo[1,2-b]pyridazine] | – |
| < 100 nM | < 100 nM | Cc1cn2nc(-c3cc(F)c4nn(C5CCN(CC6CC6)CC5)cc4c3)cc(C)c2n1 [Compound 149, 6-[2-[1-(cyclopropylmethyl)-4-piperidyl]-7-fluoro-indazol-5-yl]-2,8-dimethyl-imidazo[1,2-b]pyridazine] | – |
| < 100 nM | 100 to 1000 nM | Cc1cn2cc(-c3cc(F)c4nn(C5CCNCC5)cc4c3)cc(F)c2n1 [Compound 129, 7-fluoro-5-(8-fluoro-2-methylimidazo[1,2-a]pyridin-6-yl)-2-(piperidin-4-yl)-2H-indazole] | – |
| < 100 nM | 1000 to 10000 nM | Cc1cn2nc(-c3cc(F)c4nn([C@H]5CCNC[C@@H]5F)cc4c3)cc(C)c2n1 [Compound 167, 6-(7-fluoro-2-((3S,4S)-3-fluoropiperidin-4-yl)-2H-indazol-5-yl)-2,8-dimethylimidazo[1,2-b]pyridazine] | – |
| < 100 nM | 100 to 1000 nM | Cc1nc2c(C)cc(-c3cc(F)c4nn(C5CCNCC5)cc4c3)cc2o1 [Compound 137, 6-[7-fluoro-2-(4-piperidyl)indazol-5-yl]-2,4-dimethyl-1,3-benzoxazole] | – |
| < 100 nM | 100 to 1000 nM | Cn1cc2cc(-c3cc(F)c4nn(C5CCNCC5)cc4c3)cc(C#N)c2n1 [Compound 130, 5-[7-fluoro-2-(4-piperidyl)indazol-5-yl]-2-methyl-indazole-7-carbonitrile] | – |
| < 100 nM | 100 to 1000 nM | Cc1cn2nc(-c3cc(F)c4nn(C5CCNCC5)cc4c3)cc2c(C)n1 [Compound 124, 2-[7-fluoro-2-(4-piperidyl)indazol-5-yl]-4,6-dimethyl-pyrazolo[1,5-a]pyrazine] | – |
| < 100 nM | 100 to 1000 nM | CCN1CCC(n2cc3cc(-c4cc(C)c5nc(C)cn5n4)cc(F)c3n2)CC1 [Compound 146, 6-[2-(1-ethyl-4-piperidyl)-7-fluoro-indazol-5-yl]-2,8-dimethyl-imidazo[1,2-b]pyridazine] | – |
| < 100 nM | 100 to 1000 nM | Cc1cn2nc(-c3ccc4nn(C5CCNCC5)cc4c3)cc(C)c2n1 [Compound 192, 2,8-dimethyl-6-[2-(4-piperidyl)indazol-5-yl]imidazo[1,2-b]pyridazine] | – |
| < 100 nM | 1000 to 10000 nM | Cc1cn2nc(-c3ccc4nn(C5CCNCC5)cc4n3)cc(C)c2n1 [Compound 138, 2,8-dimethyl-6-[2-(4-piperidyl)pyrazolo[4,3-b]pyridin-5-yl]imidazo[1,2-b]pyridazine] | – |
| < 100 nM | 1000 to 10000 nM | Cn1cc2cc(-c3ccc4nn(C5CCNCC5)cc4n3)c(O)cc2n1 [Compound 110, 2-methyl-5-[2-(4-piperidyl)pyrazolo[4,3-b]pyridin-5-yl]indazol-6-ol] | – |
